Assay [1] deals with A375 cells. Kind of assay: Cell death by Annexin V-FITC/DAPI flow cytometry. In kind it is cell-based, human. As to conditions: 8TQ 0.27, 0.9, 3 μM, 72h. The method, then: FIG. 2. PSMD14 depletion has a potent cytotoxic effect on melanoma cells. A) Experimental validation of the siDUB screening on melanoma cell proliferation. 501Mel and A375 melanoma cells were plated 10,000 cells/well in a 24-well plate and transfected with a control siRNA (siCTRL) or 3 different siRNA sequences targeting PSMD14 (siPSMD14 #1, #2 and #3). Cell confluence was imaged for 48 h using the IncuCyte Zoom live imaging system. Curves represent normalized cell proliferation of each siRNA relative to siCTRL. Data are the mean±SEM (n=3). ***P<0.001, 2-way ANOVA analysis. B) Colony survival analysis after PSMD14 depletion (siPSMD14 #1, #2 and #3) compared to control siRNA (siCTRL). 501Mel and A375 cells were transfected with siRNAs, re-seeded at 2,000 cells/well and grown for 1 week. Colonies were stained with crystal violet. […] Box plots show the mean±SEM of crystal violet quantification relative to siCTRL (n=3, ***P<0.001.). […] After 72h, cells were labeled with Annexin V-FITC and DAPI and analysed by flow cytometry. […]
FIG. 3. […] Right, cell viability was quantified on lysates by analyzing crystal violet staining at 595 nm. […] After 72h, cells were stained with Annexin V-FITC and DAPI and analysed by flow cytometry. […] The calculated mean IC50±sem is shown. […] After 72h, cells were labeled and analyzed as in b). The corresponding IC50 of 8TQ was determined by measuring cell viability. […]

Assay [2] relates to A375 cells. Nature of the assay: Western blot analysis of A375 cells. In kind it is cell-based, human. The note with it: data not shown. The source says:
Culture reagents and DAPI were purchased from Thermo Fischer Scientific. Vemurafenib (PLX4032) and Trametinib (GSK1120212) were from Selleckchem. Chemicals, cycloheximide (CHX), 8TQ and puromycin were from Merck Millipore. The antibodies used for western blotting were as follow: PSMD14 (Generon), HSP90, p53 (Santa Cruz Biotechnology), K48-linkage specific polyubiquitin (D9D5), p21, CDK2, PARP, cleaved caspase 3, phospho-Thr202/Tyr204 Erk1/2 (Cell Signaling Technology), phospho-Ser139 H2AX (BioLegend). Alexa Fluor TexasRed-conjugated secondary antibodies were from ThermoFisher Scientific.
Background: Immunoblotting shows a protein as a band on a membrane.

The test system of assay [3] is A375 cells. Nature of the assay: Survival analysis (crystal violet staining) of A375 cells treated with 8TQ. In kind it is cell-based. The note with it: Homo sapiens, A-375, increasing doses of 8TQ, 72h, read-out: calculated IC50 for 8TQ. The method, then: (§1) FIG. 3. Pharmacological inhibition of PSMD14 impairs melanoma cell survival. A) Survival analysis performed on A375 cells treated with vehicle or increasing doses of 8TQ (0.27, 0.9, 3 μM). After 72h, cells were stained with crystal violet. Right, cell viability was quantified on lysates by analyzing crystal violet staining at 595 nm. Histograms represent the mean±SD of three independent experiments in duplicate (***P<0.001; ns, non significant). B) Effect of PSMD14 inhibition on melanoma cell viability. A375 cells were treated with vehicle or increasing doses of 8TQ (0.27, 0.9, 3 μM). After 72h, cells were stained with Annexin V-FITC and DAPI and analysed by flow cytometry. Histograms show the percentage of cell death (Annexin V and DAPI positive cells) (mean±SEM, n=3). The calculated mean IC50±sem is shown. (** P<0.005, ***P<0.001). C) A subset of melanoma cells was treated with increasing doses of 8TQ. After 72h, cells were labeled and analyzed as in b). The corresponding IC50 of 8TQ was determined by measuring cell viability. Box plots indicating the upper/lower quartile and the median with whiskers from min to max values from 2 experiments performed in triplicate.
After treatment, cells were fixed in PFA 3% during 20 min, washed with PBS and stained with crystal violet 0.4% in ethanol 20% for 30 min. After washing, crystal violet was solubilized from fixed cells. […]

Assay [4] relates to A375Riv human melanoma cells. Nature of the assay: BRAFi-resistant A375Riv xenografts. The class given is in vivo. As to conditions: A375Riv xenografts in nude mice, 8TQ 10 mg/kg i.p. vs vehicle. How it is done:
(§2) FIG. 5. Targeting PSMD14 overcomes resistance to MAPK pathway inhibition. A) Melanoma cell lines resistant to BRAFi (A375RIV, M229R, M238R and M249R) or double resistant to BRAFi and MEKi (A375DDR) were transfected with siCTRL or siPSMD14 #1. After 72h, cell colonies were stained with crystal violet and the absorbance at 595 nm was measured. Box plots show the upper/lower quartile and the median with whiskers from min to max values (n=3, ***P<0.001). B) The above panel of melanoma cells was treated with increasing doses of 8TQ. After 72h, cells were labeled and analyzed. The corresponding IC50 of 8TQ was determined. Box plots indicate the upper/lower quartile and the median with whiskers from min to max values from 2 experiments performed in triplicate. C) 1×10^6 A375Riv human melanoma cells were implanted into both flanks of nude mice. After 2 days, mice were injected i.p every day with 8TQ (10 mg/kg) or vehicle. The tumor size was measured with a caliper and the tumor volume was determined. Data shown are mean±SD of tumor volume (n=12; ***, ***P<0.001, 2way ANOVA).
All mouse experiments were carried out in accordance with the Institutional Animal Care and the local ethics committee (CIEPAL-Azur agreement NCE/2018-509). […] The tumor size was measured with a caliper and the tumor volume was determined using the formula: Volume=(length×Width2)/2. […]

Assay [5] deals with human (M099, M029, Sbcl2, 501Mel, WM9 and MEWO) and murine (Yumm1.7 and MaNras) melanoma cell lines. Kind of assay: IC50 of 8TQ on a collection of melanoma cell lines and short-term cultures. The class given is cell-based. How it is done: as §1, with “Box plots indicating the upper/lower quartile and the median with whiskers from min to max values from 2 experiments performed in triplicate.” left out
(§3) After 24 to 48h of treatment, cell viability was evaluated by flow cytometry following staining with Annexin-V-FITC and propidium iodide (PI) (ThermoFisher Scientific) as previously described (27). The percentage of dead cells (Annexin-V-FITC+ and PI+ cells) was then determined. […]

Assay [6] concerns 501Mel and A375 melanoma cells. Kind of assay: Phosphorylated H2AX after 8TQ. The class given is cell-based, human. The note with it: increased doses of 8TQ, 48h, data not shown. The method, then: For phospho-H2AX (pH2AX) foci staining, cells grown on coverslips or culture dishes were fixed with 4% paraformaldehyde and permeabilized in 50 mM Tris-HCl, pH 7.4, 150 mM NaCl, 0.3% Triton X-100 for 1 h at 4° C. Cells were then blocked in 50 mM Tris-HCl, pH 7.4, 150 mM NaCl, 0.03% Triton X-100, 1% BSA for 1 h at 37° C., and stained with anti-phospho-Ser139 H2AX (1:1000, Merck Millipore #05-636) at 4° C. overnight. After extensive washings, cells were stained with Alexa Fluor TexasRed-conjugated secondary antibodies and 10 μg/ml DAPI for 1 h at room temperature. After washing, cells were mounted with ProLong Gold Antifade Mounting Oil (Thermo Fischer Scientific). The percentage of cells positive for phospho-H2AX foci was determined by analyzing 200 randomly chosen cells and the foci-positive cells were defined as nuclei with at least one large focus or a granular pattern of fluorescence.

The test system of assay [7] is Yumm1.7 murine melanoma cells (BrafV600E/Pten null/cdkn2a null). Kind of assay: Yumm1.7 syngeneic melanoma model. In kind it is in vivo, C57Bl/6J mice. How it is done:
(§4) FIG. 4. The PSMD14 inhibitor 8TQ inhibits tumor growth in melanoma syngeneic models. A) 2×10^5 murine melanoma cells Yumm1.7 (derived from BrafV600E/Pten null/cdkn2a null mice) were subcutaneously inoculated into both flanks of 6-week old C57Bl/6J female mice. After one week, mice were injected i.p 3 times per week with 8TQ (10 mg/kg) or vehicle. The tumor size was measured with a caliper and the tumor volume was determined. Data shown are mean±SD of tumor volume (n=12; ***, ***P<0.001, 2way ANOVA). B) 4×105 murine melanoma MaNRas (NRasQ61K) were subcutaneously injected into both flanks of 6-week old C57Bl/6J female mice. After two weeks, mice were injected i.p every two days with 8TQ (10 mg/kg) or vehicle. The tumor size was measured with a caliper and the tumor volume was determined. Data shown are mean±sd of tumor volume (n=12; ***, ***P<0.001, 2way ANOVA).
Slices (4 μm) from paraffin-embedded tumors sections were Tissue sections were processed for dewaxing, rehydration and antigenic heat unmasking using the PT Module Lab Vision™ (ThermoFisher Scientific) according to the manufacturer's instructions. Tissue sections were then labelled with primary antibodies diluted in 1% BSA (wt/vol) followed by standard avidin-biotin-peroxidase staining (Vector Laboratories) using the automated staining system Myreva SS30 (Microm Microtech, France). Primary antibodies were as follows: phospho-H2AX (Merck Millipore), Ki67 (Agilent Dako), cleaved caspase 3 (Cell Signaling Technology).
All mouse experiments were carried out in accordance with the Institutional Animal Care and the local ethics committee (CIEPAL-Azur agreement NCE/2018-509). The animals were maintained on a 12h light/dark cycle in a temperature-controlled facility at 22° C. and were provided with free access to food (standard laboratory chow diet from UAR). For melanoma xenografts, 2×106 BRAF inhibitor resistant A375Riv human melanoma cells were subcutaneously implanted into both flanks of 6 week old athymic nude nu/nu female mice (Envigo). For melanoma syngeneic models, 2 to 4 105 of Yumm1.7 or MaNras murine melanoma cells were subcutaneously inoculated into 6 week old C57Bl/6J female mice (Envigo). When tumors became palpable (0.05 to 0.1 cm3), mice were injected intraperitoneally once every other day with vehicle or 10 mgkg-1 8TQ in a 90:9:1 (v/v/v) mixture of Labrafil, dimethylacetamide, and Tween 80. The tumor size was measured with a caliper and the tumor volume was determined using the formula: Volume=(length×Width2)/2. At the end of the experiment, mice were sacrificed and tumors dissected, weighed, fixed and embedded in paraffin for IHC analysis.

Assay [8] deals with A375RIV, M229R, M238R, M249R and A375DDR melanoma cells. Nature of the assay: Viability of BRAFi- and BRAFi/MEKi-resistant melanoma cells treated with 8TQ. In kind it is cell-based, human. The method, then: as §2, §3
In assay [9] the test system is MaNRas murine melanoma cells (NRasQ61K). Kind of assay: MaNRas syngeneic melanoma model. The class given is in vivo. The note with it: 8TQ 10 mg/kg i.p. vs vehicle, C57Bl/6J mice. The method, then:
as §4
All mouse experiments were carried out in accordance with the Institutional Animal Care and the local ethics committee (CIEPAL-Azur agreement NCE/2018-509). The animals were maintained on a 12h light/dark cycle in a temperature-controlled facility at 22° C. and were provided with free access to food (standard laboratory chow diet from UAR). […] The tumor size was measured with a caliper and the tumor volume was determined using the formula: Volume=(length×Width2)/2. […]

The mark [10] stands for this setting: Yumm1.7 tumors, vs vehicle, data not shown.
The mark [11] stands for this setting: immunostaining on tumor sections, data not shown.

As a reminder, the IC50 is the concentration at which inhibition is half-maximal.

With `Sc1cccc2cccnc12` [8TQ, quinoline-8-thiol], the “apoptotic cell death (Annexin V-FITC/DAPI staining)” value in assay [1] is reported as “dose-dependent increase”. For the same compound, in assay [2], the “accumulation of poly-ubiquitinated proteins” value is reported as “induced the accumulation”, the “expression of cleaved PARP” value is given as “induced” and the “expression of cleaved caspase-3” value is recorded as “induced”. Moreover, in assay [3], the IC50 is 660 nM. Also, in [4], the tumor development result is reported as “dramatically abrogated”. In addition, the IC50 in assay [5] (collection of human and murine melanoma cell lines and short-term cultures, 72h) was 250 to 750 nM. The melanoma cell viability entry in assay [5] (irrespective of the mutational status or the disease stage) is recorded as “markedly inhibited”. The “expression of phosphorylated H2AX” value in assay [6] was “elevated expression”. Moreover, in assay [7] (8TQ 10 mg/kg i.p. vs vehicle, C57Bl/6J mice), the Yumm1.7 tumor growth entry was “significantly decreased”. Also, in assay [7] (setting [10]), the “tumor size at the experiment endpoint” value is given as “markedly reduced” and the “tumor weight at the experiment endpoint” value was “markedly reduced”. Also, in [7] (setting [11]), the “staining of the apoptosis marker cleaved caspase 3” value is reported as “increased staining” and the “staining of the cell proliferation marker Ki67” value is “decreased staining”. Also, the “viability of BRAFi- and BRAFi/MEKi-resistant cells” value in [8] (doses of 8TQ, 72h) is given as “potently decreased”. In addition, in [8] (resistant cells compared with parental counterparts), the “IC50 of 8TQ” value is on record as “in the same μM range”. In assay [9], the MaNRAS tumor growth entry was “significantly decreased”.

The values above are taken from patent publication US20230076415A1, “METHODS AND COMPOSITIONS FOR TREATING MELANOMA” (INSERM (INSTITUT NATIONAL DE LA SANTÉ ET DE LA RECHERCHE …, priority 2020, published 2023).
